Values after ≈ are worked out from the molar mass of the structure shown. Active and inactive are the calls of the source. The rule behind the calls is not given here.
Legend:
[1] = Inhibition of fluorescent probe FITC tagged PDR1-KIX domain (unknown origin) protein-protein interaction assessed as inhibition constant incubated for 2 hrs by fluorescence polarization binding assay
[2] = tested on: Nakaseomyces glabratus; test: Antifungal activity against fluconazole-resistant Candida glabrata 0161 assessed as fungal growth inhibition incubated for 48 hrs by microplate reader assay; type: functional
[3] = tested on: Nakaseomyces glabratus; test: Antifungal activity against fluconazole-resistant Candida glabrata 0161 assessed as fractional inhibitory concentration incubated for 48 hrs in presence of fluconazole by microplate reader assay; type: functional
[4] = tested on: Nakaseomyces glabratus; test: Antifungal activity against fluconazole-resistant Candida glabrata 0161 assessed as fluconazole fractional inhibitory concentration incubated for 48 hrs in presence of fluconazole by microplate reader assay; type: functional
[5] = tested on: Nakaseomyces glabratus; test: Synergistic antifungal activity against fluconazole-resistant Candida glabrata 0161 assessed as fractional inhibitory concentration index incubated for 48 hrs in presence of fluconazole by checkerboard microdilution method; type: functional
[6] = tested on: Nakaseomyces glabratus; test: Antifungal activity against fluconazole-resistant Candida glabrata 9256 assessed as fungal growth inhibition incubated for 48 hrs by microplate reader assay; type: functional
[7] = tested on: Nakaseomyces glabratus; test: Antifungal activity against fluconazole-resistant Candida glabrata 8535 assessed as fungal growth inhibition incubated for 48 hrs by microplate reader assay; type: functional
[8] = tested on: Candida albicans; test: Antifungal activity against Candida albicans assessed as fungal growth inhibition incubated for 48 hrs by microplate reader assay; type: functional
[9] = tested on: Candida tropicalis; test: Antifungal activity against Candida tropicalis 10186 assessed as fungal growth inhibition incubated for 48 hrs by microplate reader assay; type: functional
[10] = tested on: Candida parapsilosis; test: Antifungal activity against Candida parapsilosis 20090 assessed as fungal growth inhibition incubated for 48 hrs by microplate reader assay; type: functional; settings: Lodderomyces parapsilosis
[11] = tested on: [Candida] auris; test: Antifungal activity against Candida auris 0030 assessed as fungal growth inhibition incubated for 48 hrs by microplate reader assay; type: functional; settings: Candidozyma auris
[12] = tested on: [Candida] auris; test: Antifungal activity against Candida auris 15448 assessed as fungal growth inhibition incubated for 48 hrs by microplate reader assay; type: functional; settings: Candidozyma auris
[13] = tested on: Aspergillus fumigatus; test: Antifungal activity against Aspergillus fumigatus 7544 assessed as fungal growth inhibition incubated for 48 hrs by microplate reader assay; type: functional
[14] = tested on: Nannizzia gypsea; test: Antifungal activity against Microsporum gypseum assessed as fungal growth inhibition incubated for 48 hrs by microplate reader assay; type: functional
[15] = tested on: Trichophyton rubrum; test: Antifungal activity against Trichophyton rubrum assessed as fungal growth inhibition incubated for 48 hrs by microplate reader assay; type: functional
[16] = tested on: Cryptococcus neoformans; test: Antifungal activity against Cryptococcus neoformans H99 assessed as fungal growth inhibition incubated for 48 hrs by microplate reader assay; type: functional
[17] = tested on: Nakaseomyces glabratus; test: Antifungal activity against FLC-resistant Candida glabrata 0161 infected in cyclophosphamide immunosuppressed ICR mouse model assessed as inhibition of fungal growth in kidney at 40 mg/kg,ip administrated for 5 days; type: functional, organism-based; settings: time 5.0 day
[18] = Binding affinity to Candida glabrata KIX domain assessed as dissociation constant; parameters: species or system Nakaseomyces glabratus
[19] = Aqueous solubility of compound; type: physicochemical

SMILES | Ki [1] | MIC [2] | FIC [3] | fluconazole MIC in combination [4] | fractional inhibitory concentration index (FICI) [5] | MIC [6] | MIC [7] | MIC [8] | MIC [9] | MIC [10] | MIC [11] | MIC [12] | MIC [13] | MIC [14] | MIC [15] | MIC [16] | Activity [17] | Kd [18] | solubility [19]
Nc1cc(=O)n(C(=S)Nc2ccccc2Cl)[nH]1 | 85.8 µM | 0.5 µg/mL (≈ 1.86 µM) | 0.13 µg/mL | 16 µg/mL | 0.76 | 0.25 µg/mL (≈ 0.93 µM) | 0.25 µg/mL (≈ 0.93 µM) | 4 µg/mL (≈ 14.9 µM) | 4 µg/mL (≈ 14.9 µM) | 4 µg/mL (≈ 14.9 µM) | 2 µg/mL (≈ 7.44 µM) | 2 µg/mL (≈ 7.44 µM) | 16 µg/mL (≈ 59.5 µM) | 1 µg/mL (≈ 3.72 µM) | 1 µg/mL (≈ 3.72 µM) | 0.063 µg/mL (≈ 0.234 µM) | – | – | –
Nc1cc(=O)n(C(=S)Nc2ccc(Cl)cc2)[nH]1 | 54.5 µM | 0.25 µg/mL (≈ 0.93 µM) | 0.063 µg/mL | 2 µg/mL | 0.31 | 0.25 µg/mL (≈ 0.93 µM) | 0.25 µg/mL (≈ 0.93 µM) | 4 µg/mL (≈ 14.9 µM) | 4 µg/mL (≈ 14.9 µM) | 4 µg/mL (≈ 14.9 µM) | 2 µg/mL (≈ 7.44 µM) | 2 µg/mL (≈ 7.44 µM) | 16 µg/mL (≈ 59.5 µM) | 1 µg/mL (≈ 3.72 µM) | 1 µg/mL (≈ 3.72 µM) | 0.063 µg/mL (≈ 0.234 µM) | – | – | –
N#CCC(=O)NNC(=S)Nc1ccc(Cl)c(Cl)c1 | 29.2 µM | 32 µg/mL (≈ 106 µM) | 8 µg/mL | 2 µg/mL | 0.31 | – | – | – | – | – | – | – | – | – | – | – | Active | 2.8 µM | 9.12 µg/mL (≈ 30.1 µM)

Source: ChEMBL document CHEMBL5321270, “Discovery of Pyrazolone Carbothioamide Derivatives as Inhibitors of the Pdr1-KIX Interaction for Combinational Treatment of Azole-Resistant Candidiasis” (J Med Chem, 2023)
